Measured values from patent US20080015255A1, “Pharmaceutical Compositions Based on Fluorinated Sulphamides and Sulphinimides” (CENTRE NATIONAL DE LA RECHERCHE SCIENTIFIQUE(C.N.R.S.), priority 2004, published 2008).

Target: bovine carbonic anhydrase (Bos taurus, UniProt P00921)
Assay: Inhibition of bovine carbonic anhydrase esterase activity (hydrolysis of p-nitrophenyl acetate, UV 348 nm)
Conditions: for % inhibition of the hydrolysis of nitrophenyl acetate (NPA) catalyzed by carbonic anhydrase: 25° C.; for inhibition with respect to carboanhydrase, in words: comparable with or even superior to that of acetazolamide

Chain of bovine carbonic anhydrase (P00921 whole entry): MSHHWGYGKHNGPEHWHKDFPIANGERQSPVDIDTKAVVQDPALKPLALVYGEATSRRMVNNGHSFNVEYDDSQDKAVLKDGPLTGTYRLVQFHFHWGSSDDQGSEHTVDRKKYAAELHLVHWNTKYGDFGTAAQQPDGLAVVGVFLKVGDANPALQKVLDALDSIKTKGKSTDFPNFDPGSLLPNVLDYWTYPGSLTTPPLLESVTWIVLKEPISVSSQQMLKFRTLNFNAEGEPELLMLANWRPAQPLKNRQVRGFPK

SMILES	% inhibition of the hydrolysis of nitrophenyl acetate (NPA) catalyzed by carbonic anhydrase (inhibitor 1.35 10^−4 mol/l)	% inhibition of the hydrolysis of nitrophenyl acetate (NPA) catalyzed by carbonic anhydrase (inhibitor 1.35 10^−6 mol/l)	% inhibition of the hydrolysis of nitrophenyl acetate (NPA) catalyzed by carbonic anhydrase (inhibitor 1.35 10^−7 mol/l)	inhibition with respect to carboanhydrase, in words	% inhibition of the hydrolysis of nitrophenyl acetate (NPA) catalyzed by carbonic anhydrase (inhibitor 1.35 10^−8 mol/l)
CCCCCCS(N)(=O)=O [Example C6H13SO2NH2, n-hexanesulfamide, reference compound]	73%	0%			
O=S(=O)(NS(=O)(=O)C(F)(F)C(F)(F)C(F)(F)C(F)(F)C(F)(F)C(F)(F)C(F)(F)C(F)(F)F)C(F)(F)C(F)(F)C(F)(F)C(F)(F)F [(C4F9SO2)NH(C8F17SO2)]	97%	0%			
NS(=O)(=O)C(F)(F)C(F)(F)C(F)(F)C(F)(F)C(F)(F)C(F)(F)C(F)(F)F [Example C7F15SO2NH2]		80%	0%		
NS(=O)(=O)C(F)(F)C(F)(F)C(F)(F)C(F)(F)C(F)(F)C(F)(F)C(F)(F)C(F)(F)F [Example C8F17SO2NH2, 1,1,2,2,3,3,4,4,5,5,6,6,7,7,8,8,8-heptadecafluoro-octanesulfamide]		88%	7%	very considerable inhibition	5%
O=S(=O)(NS(=O)(=O)C(F)(F)C(F)(F)C(F)(F)C(F)(F)C(F)(F)C(F)(F)C(F)(F)C(F)(F)F)C(F)(F)C(F)(F)C(F)(F)C(F)(F)C(F)(F)C(F)(F)C(F)(F)C(F)(F)F [(C8F17SO2)2NH]	89%	0%			
NS(=O)(=O)C(F)(F)C(F)(F)C(F)(F)C(F)(F)S(N)(=O)=O [(C2F4SO2NH2)2, perfluorobutane-1,4-disulfamide]		78%	6%	very considerable inhibition	1%
NS(=O)(=O)CCC(F)(F)C(F)(F)C(F)(F)C(F)(F)C(F)(F)C(F)(F)C(F)(F)C(F)(F)F [C8F17(CH2)2SO2NH2]		36%			
CCCCCCCCS(N)(=O)=O [Example C8H17SO2NH2, n-octanesulfamide, reference compound]	86%	5%			
O=S(=O)(NS(=O)(=O)C(F)(F)C(F)(F)C(F)(F)C(F)(F)C(F)(F)C(F)(F)C(F)(F)C(F)(F)F)C(F)(F)C(F)(F)C(F)(F)C(F)(F)C(F)(F)C(F)(F)F [(C8F17SO2)NH(C6F13SO2)]	87%	0%			
O=S(=O)(NS(=O)(=O)C(F)(F)C(F)(F)C(F)(F)C(F)(F)F)C(F)(F)C(F)(F)C(F)(F)C(F)(F)F [(C4F9SO2)2NH]	65%	0%			
O=S(=O)(NS(=O)(=O)C(F)(F)C(F)(F)C(F)(F)C(F)(F)C(F)(F)C(F)(F)F)C(F)(F)C(F)(F)C(F)(F)C(F)(F)C(F)(F)C(F)(F)F [(C6F13SO2)2NH, bis(1,1,2,2,3,3,4,4,5,5,6,6,6)tridecafluoro-n-hexylsulfinimide]	85%	0%			
[NH-]S(=O)(=O)C(F)(F)C(F)(F)C(F)(F)C(F)(F)C(F)(F)C(F)(F)C(F)(F)C(F)(F)F.[Na+] [C8F17SO2NH^−+Na, sodium 1,1,2,2,3,3,4,4,5,5,6,6,7,7,8,8,8-heptadecafluoro-n-octylsulfamide anion]		94%	40%	very considerable inhibition	17%
O=S(=O)(NS(=O)(=O)C(F)(F)C(F)(F)C(F)(F)C(F)(F)C(F)(F)C(F)(F)F)C(F)(F)C(F)(F)C(F)(F)C(F)(F)F [(C6F13SO2)NH(C4F9SO2)]	87%	0%			
[Li+].[NH-]S(=O)(=O)C(F)(F)C(F)(F)C(F)(F)C(F)(F)C(F)(F)C(F)(F)C(F)(F)C(F)(F)F [C8F17SO2NH^−+Li]		85%	3%		
